From ChEMBL document CHEMBL1201862, “PubChem BioAssay data set” (2004)
The source made the active and inactive calls. Rule as the data show it, for most assays here: actives have a measured EC50 and inactives only a lower limit.

Columns and labels:
[1] = target: Cytochrome P450 3A4 (Homo sapiens, UniProt P08684);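 also: CYP3A4 tested as one member of a cytochrome P450 panel screen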
[2] = system: H9c2; experiment: cells; type: functional, cell-based; conditions: Rattus norvegicus, H9c2, Myocardium;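 also: confirmatory concentration-response retest of ultra-high-throughput screening hits for modulation of myocardial damage; cell death induced by hydrogen peroxide oxidative stress; compound pretreatment for 60 min then peroxide exposure for 2 h; potency is for protecting the cells against peroxide damage rather than for killing them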
[3] = target: Luciferin 4-monooxygenase (Photinus pyralis, UniProt P08659); experiment: firefly luciferase enzyme inhibitors, dose response, biochemical, luminescence (AID 1891)
[4] = Luminescence Cell-Based Dose Confirmation HTS to Identify Inhibitors of Platelet Dense Granule Release. [Related pubchem assays: 1663 (Primary HTS), 1678 (Summary of Project)]; type: functional
[5] = Shn3 3'UTR reporter inhibitors, dose response, cell-based, Clone20 osteoblasts, firefly luciferase, cherry-picked (AID 624132); type: functional;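 also: firefly luciferase luminescence from reporter carrying the Shn3 3'UTR in osteoblasts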
[6] = system: BJ; experiment: cytotoxicity toward BJ-TERT fibroblasts, dose response, cell-based, RAS-independent, luminescence (AID 1933); type: functional; conditions: Homo sapiens
[7] = system: BJ; experiment: cells; type: functional, cell-based; conditions: Homo sapiens
[8] = system: BJ; experiment: cytotoxicity toward BJ-TERT-LT-ST fibroblasts, dose response, cell-based, RAS-independent, luminescence (AID 1935); type: functional; conditions: Homo sapiens;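 also: BJ fibroblasts immortalized with TERT plus LT and ST oncogenes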
[9] = cytotoxicity toward DRD oncogenic fibroblasts, dose response, cell-based, non-viral oncogenic, luminescence (AID 1934); type: functional; conditions: Homo sapiens
[10] = system: Streptococcus sp. 'group A'; experiment: growth inhibition of control SK(-) GAS strain, dose response, counter-screen for streptokinase expression inhibitor project, luminescence, kanamycin, BacTiterGlo, confirmation (AID 1900); type: functional, organism-based
[11] = target: T1, Streptokinase A (Streptococcus pyogenes serotype M1, UniProt P10520); experiment: S. pyogenes streptokinase expression inhibitors, potency, dose response, plasminogen activation absorbance, OD405 (AID 1914); type: functional, Streptococcus pyogenes M1 GAS;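 also: secreted streptokinase activity via plasminogen activation per viability signal from cell pellet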
T1 sequence (P10520 whole entry): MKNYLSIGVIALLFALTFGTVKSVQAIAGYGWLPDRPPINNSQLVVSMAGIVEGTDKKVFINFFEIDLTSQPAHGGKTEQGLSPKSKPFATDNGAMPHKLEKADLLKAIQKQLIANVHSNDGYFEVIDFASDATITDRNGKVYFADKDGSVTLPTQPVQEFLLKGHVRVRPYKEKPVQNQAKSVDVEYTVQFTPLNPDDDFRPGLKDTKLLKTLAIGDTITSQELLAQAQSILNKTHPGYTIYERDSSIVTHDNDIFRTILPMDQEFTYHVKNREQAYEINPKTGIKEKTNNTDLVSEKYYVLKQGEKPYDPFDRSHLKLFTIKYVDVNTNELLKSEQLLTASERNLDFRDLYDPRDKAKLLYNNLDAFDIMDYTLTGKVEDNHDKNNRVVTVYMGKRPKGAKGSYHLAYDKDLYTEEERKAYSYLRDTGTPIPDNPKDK

[12] = system: Streptococcus; experiment: Group A Streptococcus viability loss, dose response, counter-screen for streptokinase expression inhibitor project, luminescence, BacTiterGlo (AID 1915); type: functional, organism-based;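 also: potency for reduction of bacterial viability or growth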
[13] = system: Vero; experiment: cells; type: functional; conditions: Chlorocebus sabaeus
[14] = target: Cytochrome P450 2D6 (Homo sapiens, UniProt P10635);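 also: CYP2D6 member of a cytochrome P450 panel assay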
[15] = cells; type: functional, cell-based
[16] = cells; type: functional, cell-based; remark: listed apart in the source
[17] = inhibitors of firefly luciferase expression or activity, dose response, H4 neuroglioma cells, luminescence (AID 1990); type: functional, cell-based
[18] = Luminescence Cell-Based Dose Response HTS to Identify Inhibitors of 5'UTR Stem-Loop Driven Prion Protein mRNA Translation in H4 Neuroglioblastoma Cells. [Related pubchem assays: 1827 (Project Summary), 1813 (Primary HTS)]; type: functional
[19] = inhibitors of SNCA 5'UTR-driven reporter translation, confirmation, H4 neuroglioma cells, luminescence (AID 1988); type: functional, cell-based
[20] = inhibitors of intracellular T. cruzi replication, confirmation, NIH3T3 host cells, beta-gal luminescence (AID 2044); type: functional, cell-based;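 also: intracellular parasites grown in NIH/3T3 mouse fibroblasts as host cells; luminescent beta-galactosidase reporter signal from transgenic T. cruzi replicating inside host cells; inhibitors lower the luminescence signal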
[21] = cytotoxicity toward NIH3T3 fibroblasts, dose response, counter-screen, cell-based, ATP luminescence, mouse fibroblasts (AID 2010); type: functional;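 also: cells exposed to compound for about 90 hours before reading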
[22] = target: T2, Corticotropin-releasing factor receptor 2/Corticotropin-releasing factor-binding protein (Homo sapiens, UniProt P24387+Q13324); experiment: Dose Response confirmation of uHTS hits for small molecule antagonists of the CRF-binding protein and CRF-R2 receptor complex.; type: functional; conditions: read-out: IC50_Mean
T2 sequence (Q13324 whole entry): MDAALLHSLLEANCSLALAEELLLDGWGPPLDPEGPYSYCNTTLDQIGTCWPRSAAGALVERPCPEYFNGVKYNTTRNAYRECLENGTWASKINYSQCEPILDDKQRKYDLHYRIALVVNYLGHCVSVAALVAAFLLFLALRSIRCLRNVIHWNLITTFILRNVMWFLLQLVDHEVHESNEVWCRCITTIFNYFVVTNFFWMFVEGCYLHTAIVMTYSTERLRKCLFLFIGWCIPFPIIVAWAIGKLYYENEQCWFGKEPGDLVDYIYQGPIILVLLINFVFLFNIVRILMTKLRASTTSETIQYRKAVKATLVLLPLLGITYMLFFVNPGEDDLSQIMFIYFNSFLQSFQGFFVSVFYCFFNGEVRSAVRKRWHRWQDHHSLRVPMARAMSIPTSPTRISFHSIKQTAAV
T2 sequence (P24387 whole entry): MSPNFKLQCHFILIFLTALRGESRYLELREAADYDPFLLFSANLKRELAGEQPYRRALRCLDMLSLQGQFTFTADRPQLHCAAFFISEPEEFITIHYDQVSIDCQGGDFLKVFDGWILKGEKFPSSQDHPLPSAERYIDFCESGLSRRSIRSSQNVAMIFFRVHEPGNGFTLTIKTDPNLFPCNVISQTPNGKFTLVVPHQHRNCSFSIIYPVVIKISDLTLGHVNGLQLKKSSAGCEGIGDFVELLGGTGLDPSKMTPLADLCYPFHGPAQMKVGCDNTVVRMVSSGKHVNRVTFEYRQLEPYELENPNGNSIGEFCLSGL

[23] = target: T2, Corticotropin-releasing factor receptor 2/Corticotropin-releasing factor-binding protein; experiment: activators of CRF receptor 2 with binding protein – uHTS hits, confirmation (AID 602473); type: functional; conditions: read-out: EC50_Mean
[24] = target: Paired box protein Pax-8 (Homo sapiens, UniProt Q06710); experiment: inhibitors of PAX8-driven TPO luciferase reporter, dose response, RMG-I cells, cherry-pick (AID 687027); type: functional, cell-based;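 also: luciferase reporter driven by Pax8 target thyroperoxidase promoter measured by SteadyGlo luminescence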
[25] = target: Cytochrome P450 2C9 (Homo sapiens, UniProt P11712)
[26] = system: INS1; experiment: beta cell apoptosis inhibitors, cytokine rescue, dose response, luminescence, retest (AID 449756); type: functional, cell-based; conditions: Rattus norvegicus;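 also: cell death triggered by IL-1 beta plus TNF-alpha plus IFN-gamma mixture; protective hits raise ATP signal compared with cytokine alone wells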

Sequence of Cytochrome P450 3A4 (P08684 whole entry): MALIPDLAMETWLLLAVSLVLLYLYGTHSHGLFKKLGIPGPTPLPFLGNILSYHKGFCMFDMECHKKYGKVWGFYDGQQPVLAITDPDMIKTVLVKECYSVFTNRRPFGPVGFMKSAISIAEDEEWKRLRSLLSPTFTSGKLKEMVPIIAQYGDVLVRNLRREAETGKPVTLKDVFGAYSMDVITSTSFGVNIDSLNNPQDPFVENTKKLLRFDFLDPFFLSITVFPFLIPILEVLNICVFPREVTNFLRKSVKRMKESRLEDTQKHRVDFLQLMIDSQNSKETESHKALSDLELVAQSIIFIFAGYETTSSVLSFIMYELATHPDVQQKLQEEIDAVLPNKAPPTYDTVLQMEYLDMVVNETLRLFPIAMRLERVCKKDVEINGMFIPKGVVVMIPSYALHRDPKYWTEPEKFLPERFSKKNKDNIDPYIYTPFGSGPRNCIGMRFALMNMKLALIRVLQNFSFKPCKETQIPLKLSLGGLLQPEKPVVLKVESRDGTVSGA
Sequence of Paired box protein Pax-8 (Q06710 whole entry): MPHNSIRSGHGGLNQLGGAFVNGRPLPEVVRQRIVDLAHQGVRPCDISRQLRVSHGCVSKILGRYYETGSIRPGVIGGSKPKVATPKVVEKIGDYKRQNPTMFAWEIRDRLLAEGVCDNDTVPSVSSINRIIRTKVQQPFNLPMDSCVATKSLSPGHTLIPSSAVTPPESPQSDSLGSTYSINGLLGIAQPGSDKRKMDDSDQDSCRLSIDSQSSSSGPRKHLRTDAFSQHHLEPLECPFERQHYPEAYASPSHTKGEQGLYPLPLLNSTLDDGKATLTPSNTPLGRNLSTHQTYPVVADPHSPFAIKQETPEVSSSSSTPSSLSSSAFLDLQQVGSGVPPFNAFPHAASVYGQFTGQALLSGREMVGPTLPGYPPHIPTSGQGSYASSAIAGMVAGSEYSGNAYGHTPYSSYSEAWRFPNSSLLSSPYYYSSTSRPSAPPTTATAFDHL
Sequence of Cytochrome P450 2C9 (P11712 whole entry): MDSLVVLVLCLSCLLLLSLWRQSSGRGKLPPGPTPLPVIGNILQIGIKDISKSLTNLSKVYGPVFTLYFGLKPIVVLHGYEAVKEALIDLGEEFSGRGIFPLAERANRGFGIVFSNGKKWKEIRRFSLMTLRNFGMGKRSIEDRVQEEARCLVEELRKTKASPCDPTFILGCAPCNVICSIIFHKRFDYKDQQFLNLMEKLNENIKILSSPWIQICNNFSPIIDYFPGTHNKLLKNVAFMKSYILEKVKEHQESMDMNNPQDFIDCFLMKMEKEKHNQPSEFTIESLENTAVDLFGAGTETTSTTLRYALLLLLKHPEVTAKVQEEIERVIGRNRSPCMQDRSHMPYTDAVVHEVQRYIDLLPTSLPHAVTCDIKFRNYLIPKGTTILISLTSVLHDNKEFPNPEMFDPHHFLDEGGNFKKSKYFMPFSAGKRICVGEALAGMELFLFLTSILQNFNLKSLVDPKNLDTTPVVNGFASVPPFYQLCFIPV
Sequence of Luciferin 4-monooxygenase (P08659 whole entry): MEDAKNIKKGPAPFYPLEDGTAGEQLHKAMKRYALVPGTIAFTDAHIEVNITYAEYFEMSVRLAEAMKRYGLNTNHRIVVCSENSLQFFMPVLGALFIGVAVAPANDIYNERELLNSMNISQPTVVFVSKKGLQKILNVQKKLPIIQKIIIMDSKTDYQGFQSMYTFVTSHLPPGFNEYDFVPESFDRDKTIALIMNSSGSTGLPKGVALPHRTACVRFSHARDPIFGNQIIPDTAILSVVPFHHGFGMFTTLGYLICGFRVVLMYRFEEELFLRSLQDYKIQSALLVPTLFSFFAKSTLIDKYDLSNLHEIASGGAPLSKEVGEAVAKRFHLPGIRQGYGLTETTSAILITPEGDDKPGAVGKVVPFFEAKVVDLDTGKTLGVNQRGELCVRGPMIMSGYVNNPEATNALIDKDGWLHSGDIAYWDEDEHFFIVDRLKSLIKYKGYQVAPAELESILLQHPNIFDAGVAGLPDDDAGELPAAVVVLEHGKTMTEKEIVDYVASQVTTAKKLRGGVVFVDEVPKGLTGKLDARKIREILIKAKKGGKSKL
Sequence of Cytochrome P450 2D6 (P10635 whole entry): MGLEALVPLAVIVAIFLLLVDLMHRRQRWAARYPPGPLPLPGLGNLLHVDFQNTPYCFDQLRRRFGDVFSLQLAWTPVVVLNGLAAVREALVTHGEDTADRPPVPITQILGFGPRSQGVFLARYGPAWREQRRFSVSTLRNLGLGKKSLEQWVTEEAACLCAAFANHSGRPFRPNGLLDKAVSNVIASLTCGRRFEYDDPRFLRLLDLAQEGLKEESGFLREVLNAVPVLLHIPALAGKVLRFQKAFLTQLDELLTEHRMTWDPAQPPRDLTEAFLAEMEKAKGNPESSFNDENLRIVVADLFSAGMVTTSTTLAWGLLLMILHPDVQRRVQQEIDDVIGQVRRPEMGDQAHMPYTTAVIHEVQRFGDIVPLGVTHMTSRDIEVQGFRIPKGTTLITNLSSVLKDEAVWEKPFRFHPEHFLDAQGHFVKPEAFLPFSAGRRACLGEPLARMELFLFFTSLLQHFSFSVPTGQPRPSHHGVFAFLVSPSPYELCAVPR

## Nc1ncnc(N(c2ccccc2)C2CCCCC2)c1[N+](=O)[O-]
[1]
  AC50: 6.31 µM (inconclusive)

## COc1cccc(-c2nn3c(-c4ccco4)nnc3s2)c1
[2]
  IC50: > 79 µM (inactive)

## Cn1cc(CN(CCO)Cc2cccs2)c(-c2cccc(Cl)c2)n1
[3]
  EC50: > 112 µM (not active)
[4]
  EC50: > 112 µM (not active)
[5]
  AC50: 3.25 µM (active)

## COc1ccc(CCNC(=O)C(=O)NCC2CCCN2S(=O)(=O)c2ccccc2)cc1OC (stereo not given)
[2]
  IC50: > 79 µM (inactive)

## CSc1nsc(SCc2ccc(Cl)cc2)n1
[6]
  EC50: > 150 µM (not active)
[7]
  EC50: > 150 µM (not active)
[8]
  EC50: > 150 µM (inconclusive)
[9]
  EC50: > 150 µM (not active)

## COc1ccc(/C=C/C(=O)NC(=S)NNC(=O)[C@H]2C[C@@H]2c2ccccc2)cc1OC
[10]
  EC50: 0.57 µM (active)
[11]
  EC50: > 150 µM (not active)
[12]
  EC50: 20.4 µM (active)
[13]
  CC50: > 25 µM (active)

## O=C(c1ccco1)N1CCC2(CCCN(Cc3ccccc3)C2)CC1
[1]
  AC50: 12.6 µM (inconclusive)

## COc1ccccc1-c1nc(Nc2ccncc2)c2ccccc2n1
[14]
  AC50: 25.1 µM (inconclusive)
[1]
  AC50: 3.16 µM (inconclusive)

## O=C1NC(c2cccs2)Nc2ccccc21 (stereo not given)
[2]
  IC50: 18.2 µM (active)

## Cc1onc(-c2ccccc2)c1C(=O)Nc1ccc(S(=O)(=O)N2CCCC2)cc1
[15]
  EC50: > 350 µM (not active)
[16]
  EC50: > 350 µM (not active)

## Cc1cc(NC(=O)CSc2nnc(C3CC3)n2N)no1
[17]
  EC50: > 120 µM (not active)
[18]
  EC50: > 120 µM (not active)
[19]
  EC50: > 120 µM (not active)

## COc1cc2cc3c4cc(OC)c(OC)cc4cc[n+]3c(C)c2cc1OC
[1]
  AC50: 10 µM (inconclusive)

## COc1cc(OC)cc(C(=O)Nc2ccc(-c3nc4ccccc4o3)cc2)c1
[20]
  EC50: 1.06 µM (active)
[21]
  EC50: > 16 µM (not active)
[2]
  IC50: > 79 µM (inactive)

## CCOC(=O)CCCc1c[nH]c2ccccc12
[1]
  AC50: 31.6 µM (inconclusive)

## COc1cc(NC(=O)CSc2nc3ccccc3n2-c2ccccc2)c(C)cc1[N+](=O)[O-]
[6]
  EC50: > 150 µM (not active)
[7]
  EC50: > 150 µM (not active)
[8]
  EC50: > 150 µM (inconclusive)
[9]
  EC50: > 150 µM (not active)
[22]
  IC50: > 47.1 µM (inactive)
[23]
  EC50: > 53 µM (inactive)

## CCOc1ccc(CCNC(=O)COC(=O)Cn2nc(C)c([N+](=O)[O-])c2C)cc1OCC
[15]
  EC50: > 350 µM (not active)
[16]
  EC50: > 350 µM (not active)

## COc1ccc(Nc2nc(-c3sc(C)nc3C)cs2)c(OC)c1
[6]
  EC50: 62.3 µM (active)
[7]
  EC50: 4.21 µM (inconclusive)
[8]
  EC50: > 150 µM (inconclusive)
[9]
  EC50: 4.81 µM (active)

## COCCn1c(=O)cnc2cnc(Oc3ccc(OC)cc3)nc21
[1]
  AC50: 15.8 µM (inconclusive)

## COC(=O)c1ccccc1NC(=O)c1ccc2nccnc2c1
[2]
  IC50: 13.3 µM (active)

## O=C1NC(=O)C(=CNc2ccccc2[N+](=O)[O-])C(=O)N1
[17]
  EC50: > 120 µM (not active)
[18]
  EC50: 20.7 µM (active)
[19]
  EC50: > 120 µM (not active)

## Cc1nn(C)c(C)c1/C=C(/C(=O)C(C)(C)C)n1cncn1
[18]
  EC50: > 120 µM (not active)
[19]
  EC50: > 120 µM (not active)

## COCCn1ccc2c(OCC(=O)Nc3ccccc3OC)cccc2c1=O
[2]
  IC50: > 79 µM (inactive)

## Cc1ccc(Cn2c(SCc3cccnc3)nc3c2c(=O)n(C)c(=O)n3C)cc1
[17]
  EC50: > 120 µM (not active)
[18]
  EC50: > 120 µM (not active)
[19]
  EC50: > 120 µM (not active)

## COc1ccc(-c2csc(Cc3nnc(N4CCOCC4)n3-c3ccccc3)n2)cc1OC
[17]
  EC50: > 120 µM (not active)
[18]
  EC50: > 120 µM (not active)
[19]
  EC50: 19.4 µM (active)

## Cc1ccc(-n2nc3c(=O)n(CCCC(=O)NCc4ccco4)nc(C)c3c2C)cc1
[17]
  EC50: 17.1 µM (active)
[18]
  EC50: 43 µM (active)
[19]
  EC50: > 120 µM (not active)

## COc1ccc(N(Cc2cc3cc(OC)ccc3nc2O)C(=O)c2cccnc2)cc1
[2]
  IC50: > 79 µM (inactive)

## COc1cc(-c2cc3nc4ccccc4n3c(N)c2C#N)cc(OC)c1OC
[17]
  EC50: 17.2 µM (active)
[18]
  EC50: 16.4 µM (active)
[19]
  EC50: > 120 µM (not active)

## CC(OC(=O)Cn1[nH]c(=O)c2ccccc2c1=O)C(=O)Nc1cccc(Cl)c1 (stereo not given)
[2]
  IC50: > 79 µM (inactive)

## O=C(CCCN1C(=O)/C(=C/c2ccccc2OC(F)F)SC1=S)Nc1cccnc1
[13]
  CC50: 8.53 µM (active)
[24]
  AC50: 7.19 µM (active)

## O=C(NCC1CCCO1)c1onc(CSc2ccccc2F)c1C(=O)O (stereo not given)
[1]
  AC50: 25.1 µM (inconclusive)
[25]
  AC50: 6.31 µM (inconclusive)

## COc1ccccc1-c1cc(NC=O)c2ncc(-c3cccc(C(C)=O)c3)n2c1
[2]
  IC50: 10 µM (active)

## C/C(=N\NC(=S)Nc1ccc(F)cc1)C1CC1
[1]
  AC50: 14.1 µM (inconclusive)

## C[C@@H]1CCCCO[C@H](CN(C)S(=O)(=O)c2cccs2)[C@H](C)CN([C@@H](C)CO)C(=O)c2cc(NC(=O)CCC(F)(F)F)ccc2O1
[24]
  AC50: 27.6 µM (active)

## Oc1c(/C=N/c2cccc(C(F)(F)F)c2)cnn1-c1cccc(Cl)n1
[1]
  AC50: 25.1 µM (inconclusive)
[25]
  AC50: 10 µM (inconclusive)

## O=C(N/N=C/c1ccccc1O)C1CC(=O)N(c2ccc(Cl)cc2)C1 (stereo not given)
[17]
  EC50: 15.2 µM (active)
[18]
  EC50: 24.1 µM (active)
[19]
  EC50: 7.99 µM (active)
[26]
  AC50: 3.69 µM (active)
